Laboratory results from US6800635B2, “Crystalline form II of cabergoline” (Pharmacia Italia, S.p.A., priority 2000, dated 2004).

Experiment: Relative thermodynamic stability of cabergoline polymorphs (slurry of a mixture of forms I and II)
Assay type: physicochemical
Conditions: range of temperature between −70 and +30° C.; compared with Form I
Description: It can be readily prepared starting from crude material by crystallization from several solvents at low temperatures. Alternatively it can be prepared by slurry of a mixture of forms I and II in a solvent at a temperature below 30° C. The importance of cabergoline form II rests primarily (but not exclusively) in its thermodynamic stability.
Crystalline Form II cabergoline may be also prepared by subjecting a mixture of crystal forms I and II of cabergoline to a slurry procedure at a temperature below 30° C. Preferably, the mixture is stirred at room temperature in organic aliphatic linear C4-7 alkanes or C4-C5 ethers such as n-hexane or diethyl ether. In the mixture, the Form I/Form II ratio is preferably from 10:1 to 1:10. The resultant crystals were collected as above described.
A mixture of 200 mg of form I and of an equal amount of form II was added to 50 ml of n-hexane at 25° C. The suspension was stirred for about 12 hours, then filtered using a glass filter under vacuum. The collected crystals were identified by analytical methods as pure form II. The analytical data were the same of example 1.
A mixture of 50 mg of form I and of 350 mg of form II was added to 5 ml of diethyl ether at −5° C. The suspension was stirred for about 12 hours, then filtered using a glass filter under vacuum. The collected crystals were identified by analytical methods as pure form II. […]

SMILES: C=CCN1C[C@H](C(=O)N(CCCN(C)C)C(=O)NCC)C[C@@H]2c3cccc4[nH]cc(c34)C[C@H]21 [Form II, 1((6-allylergolin-8Beta-yl)-carbonyl)-1-(3-dimethylaminopropyl)-3-ethylurea]
- thermodynamic stability of the polymorph: thermodynamically most stable polymorph
